Our source for the T/C values is PubChem BioAssay AID192 (DTP/NCI, 2004).

The test system of the assay is BDF1 mice, B16 melanoma ip, median survival T/C. The assay is described as follows: NCI In Vivo Anticancer Drug Screen. Data for tumor model B16 Melanoma (intraperitoneal) in B6D2F1 (BDF1) mice. To be noted: endpoint: median survival time, higher = longer survival. The gist of the method:
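In this screen, activity was judged from survival or tumor size in treated versus vehicle-treated tumor-bearing mice, reported as T/C.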

[1] abbreviates: dose: 1.0 mg/kg/injection, schedule: Q01DX009 (ip), vehicle: saline.
Where [2] appears, read: dose: 100.0 mg/kg/injection, schedule: Q01DX009 (ip), vehicle: Klucel (hydroxypropylcellulose) (HPC).
Setting [3] is: dose: 200.0 mg/kg/injection, schedule: Q01DX009 (ip), vehicle: Klucel (hydroxypropylcellulose) (HPC).

Where “and” joins values, the source holds several entries; their conditions need not be identical. Equal values may be shown once. Toxic doses and inconclusive results are not listed.

Take `COC1OC(CO)C(O)C(NC(=O)N(C)N=O)C1O` (stereo not drawn): the T/C was 105 % of control (dose: 12.5 mg/kg/injection, schedule: Q01DX009 (ip), vehicle: saline); 150 % of control (dose: 50.0 mg/kg/injection, schedule: Q01DX009 (ip), vehicle: saline); 176 % of control and 195 % of control (dose: 100.0 mg/kg/injection, schedule: Q01DX009 (ip), vehicle: saline); 196 % of control and 209 % of control (dose: 200.0 mg/kg/injection, schedule: Q01DX009 (ip), vehicle: saline).

For the compound `COC1=C(C)C2CC(=O)OC3CC4C(C)CC(O)C(=O)C4(C)C(C1=O)C32C` (stereo not drawn), the T/C runs as follows: (dose: 0.5 mg/kg/injection, schedule: Q01DX009 (ip), vehicle: saline + alcohol) 110 % of control; (dose: 1.0 mg/kg/injection, schedule: Q01DX009 (ip), vehicle: saline + alcohol) 107 % of control; (dose: 2.0 mg/kg/injection, schedule: Q01DX009 (ip), vehicle: saline + alcohol) 99 % of control; (dose: 4.0 mg/kg/injection, schedule: Q01DX009 (ip), vehicle: saline + alcohol) 87 % of control; (dose: 8.0 mg/kg/injection, schedule: Q01DX009 (ip), vehicle: saline + alcohol) 99 % of control.

As for `CCSc1nc(C)cc(Cl)n1`, the T/C (dose: 50.0 mg/kg/injection, schedule: Q01DX009 (ip), vehicle: saline with Tween-80) was 100 % of control; the T/C (dose: 100.0 mg/kg/injection, schedule: Q01DX009 (ip), vehicle: saline with Tween-80) was 104 % of control; the T/C (dose: 200.0 mg/kg/injection, schedule: Q01DX009 (ip), vehicle: saline with Tween-80) is 88 % of control.

Regarding `CCCC(=O)NC1=C(N2CC2)C(=O)C(NC(=O)CCC)=C(N2CC2)C1=O`, the T/C under setting [1] was 86 % of control and the T/C (dose: 2.0 mg/kg/injection, schedule: Q01DX009 (ip), vehicle: saline) was 118 % of control.

On to `C=CCNC(=S)Nc1ccc(C)cc1`, for which the T/C is 100 % of control (dose: 50.0 mg/kg/injection, schedule: Q01DX009 (ip), vehicle: Klucel (hydroxypropylcellulose) (HPC)); 93 % of control under setting [2]; 90 % of control under setting [3].

For the compound `CC(=O)Nc1ccc2c(c1)C[N+](C)(C1CCCCC1)CO2` (stereo not drawn), the T/C runs as follows: (dose: 12.5 mg/kg/injection, schedule: Q01DX009 (ip), vehicle: saline with Tween-80) 106 % of control; (dose: 25.0 mg/kg/injection, schedule: Q01DX009 (ip), vehicle: saline with Tween-80) 113 % of control.

As to `O=C(Nc1ccc(C2=NCCCN2)cc1)c1ccc(C(=O)Nc2ccc(C3=NCCCN3)cc2)nc1`, the T/C by setting is: (dose: 5.0 mg/kg/injection, schedule: Q01DX009 (ip), vehicle: saline with Tween-80) 87 % of control; (dose: 10.0 mg/kg/injection, schedule: Q01DX009 (ip), vehicle: saline with Tween-80) 95 % of control.

With `O=C(Nc1ccccc1)OCCOc1ccc(Cl)cc1Cl`, the T/C under setting [2] was 96 % of control; the T/C under setting [3] was 114 % of control; the T/C (dose: 400.0 mg/kg/injection, schedule: Q01DX009 (ip), vehicle: Klucel (hydroxypropylcellulose) (HPC)) is 110 % of control.

In the case of `COc1cc2c(c(OC)c1OC)-c1ccc(OC)c(=O)cc1C(NC(=O)COc1ccccc1)CC2` (stereo not drawn), the T/C (dose: 1.25 mg/kg/injection, schedule: Q01DX009 (ip), vehicle: Klucel (hydroxypropylcellulose) (HPC)) is 175 % of control and the T/C (dose: 2.5 mg/kg/injection, schedule: Q01DX009 (ip), vehicle: Klucel (hydroxypropylcellulose) (HPC)) is 188 % of control.

Turning to `CCCCC(=O)OCC(=O)[C@]1(O)Cc2c(O)c3c(c(O)c2[C@@H](OC2CC(NC(=O)C(F)(F)F)C(O)C(C)O2)C1)C(=O)c1c(OC)cccc1C3=O` (stereo partly drawn), the T/C reads like this: (dose: 7.78 mg/kg/injection, schedule: Q01DX004 (ip), vehicle: other) 106 % of control; (dose: 9.38 mg/kg/injection, schedule: Q01DX001 (ip), vehicle: clinical formulation) 111 % of control; (dose: 13.0 mg/kg/injection, schedule: Q01DX004 (ip), vehicle: other) 115 % of control; (dose: 21.6 mg/kg/injection, schedule: Q01DX004 (ip), vehicle: other) 122 % of control; (dose: 32.0 mg/kg/injection, schedule: Q01DX009 (ip), vehicle: distilled water + Tween-80) 180 % of control; (dose: 36.0 mg/kg/injection, schedule: Q01DX004 (ip), vehicle: other) 122 % of control. Also, the T/C was 158 % of control (dose: 64.0 mg/kg/injection, schedule: Q01DX009 (ip), vehicle: distilled water + Tween-80); 191 % of control (dose: 75.0 mg/kg/injection, schedule: Q01DX001 (ip), vehicle: clinical formulation); 288 % of control (dose: 128.0 mg/kg/injection, schedule: Q01DX009 (ip), vehicle: distilled water + Tween-80); 169 % of control and 205 % of control (dose: 150.0 mg/kg/injection, schedule: Q01DX001 (ip), vehicle: clinical formulation).

In the case of `CO[C@H](C(=O)[C@@H](O)[C@@H](C)O)[C@@H]1Cc2cc3cc(OC4CC(OC5CC(O)C(O)C(C)O5)C(O)C(C)O4)c(C)c(O)c3c(O)c2C(=O)[C@H]1OC1CC(OC2CC(OC3CC(C)(O)C(O)C(C)O3)C(O)C(C)O2)C(O)C(C)O1` (stereo partly drawn), the T/C is 103 % of control (dose: 0.02 mg/kg/injection, schedule: Q01DX009 (ip), vehicle: water); 106 % of control (dose: 0.05 mg/kg/injection, schedule: Q01DX009 (ip), vehicle: water); 101 % of control (dose: 0.06 mg/kg/injection, schedule: Q01DX009 (ip), vehicle: saline); 100 % of control and 103 % of control (dose: 0.1 mg/kg/injection, schedule: Q01DX009 (ip), vehicle: water); 101 % of control (dose: 0.12 mg/kg/injection, schedule: Q01DX009 (ip), vehicle: saline); 96 % of control (dose: 0.12 mg/kg/injection, schedule: Q01DX009 (ip), vehicle: water). Besides, the T/C (dose: 0.13 mg/kg/injection, schedule: Q01DX009 (ip), vehicle: clinical formulation) was 100 % of control; the T/C (dose: 0.13 mg/kg/injection, schedule: Q01DX009 (ip), vehicle: saline) was 100 % of control and 109 % of control; the T/C (dose: 0.13 mg/kg/injection, schedule: Q01DX009 (ip), vehicle: water) is 94 % of control; the T/C (dose: 0.2 mg/kg/injection, schedule: Q01DX009 (ip), vehicle: water) was 111 % of control; the T/C (dose: 0.25 mg/kg/injection, schedule: Q01DX009 (ip), vehicle: clinical formulation) is 102 % of control; the T/C (dose: 0.25 mg/kg/injection, schedule: Q01DX009 (ip), vehicle: saline) was 100 % of control and 104 % of control and 111 % of control. The T/C reads like this: (dose: 0.25 mg/kg/injection, schedule: Q01DX009 (ip), vehicle: water) 98 % of control; (dose: 0.4 mg/kg/injection, schedule: Q01DX009 (ip), vehicle: water) 111 % of control; (dose: 0.5 mg/kg/injection, schedule: Q01DX009 (ip), vehicle: clinical formulation) 100 % of control; (dose: 0.5 mg/kg/injection, schedule: Q01DX009 (ip), vehicle: saline) 97 % of control and 105 % of control and 121 % of control; (dose: 0.5 mg/kg/injection, schedule: Q01DX009 (ip), vehicle: water) 98 % of control; (dose: 0.6 mg/kg/injection, schedule: Q01DX009 (ip), vehicle: water) 102 % of control. The T/C runs as follows: (dose: 0.75 mg/kg/injection, schedule: Q01DX009 (ip), vehicle: saline) 104 % of control; (dose: 1.0 mg/kg/injection, schedule: Q01DX009 (ip), vehicle: clinical formulation) 105 % of control; under setting [1], 97 % of control and 106 % of control and 109 % of control; (dose: 62.0 micrograms/kg/injection, schedule: Q01DX009 (ip), vehicle: saline) 98 % of control; (dose: 125.0 micrograms/kg/injection, schedule: Q01DX009 (ip), vehicle: saline) 105 % of control; (dose: 125.0 micrograms/kg/injection, schedule: Q01DX009 (ip), vehicle: water) 94 % of control. Further, the T/C runs as follows: (dose: 250.0 micrograms/kg/injection, schedule: Q01DX009 (ip), vehicle: saline) 119 % of control; (dose: 500.0 micrograms/kg/injection, schedule: Q01DX009 (ip), vehicle: saline) 111 % of control; (dose: 500.0 micrograms/kg/injection, schedule: Q01DX009 (ip), vehicle: water) 110 % of control; (dose: 1000.0 micrograms/kg/injection, schedule: Q01DX009 (ip), vehicle: saline) 115 % of control; (dose: 1000.0 micrograms/kg/injection, schedule: Q01DX009 (ip), vehicle: water) 109 % of control.

For `COc1ccc(NC(=O)O/N=C2\CN(S(=O)(=O)c3ccc(C)cc3)CCc3ccccc32)cc1`, the T/C was 102 % of control (dose: 100.0 mg/kg/injection, schedule: Q04DX003 (ip), vehicle: Klucel (hydroxypropylcellulose) (HPC)); 97 % of control (dose: 200.0 mg/kg/injection, schedule: Q04DX003 (ip), vehicle: Klucel (hydroxypropylcellulose) (HPC)); 88 % of control (dose: 400.0 mg/kg/injection, schedule: Q04DX003 (ip), vehicle: Klucel (hydroxypropylcellulose) (HPC)).
